Where “and” joins values, the source holds several entries; their conditions need not be identical. Equal entries are not always repeated. Where no end group is shown, it is not given here. [ ]: non-standard residue; d: D form.
Biological target: Ghrelin/GHRP/GHS Receptor (Rattus norvegicus, UniProt O08725)
Assay: GH release from cell culture of pituitary cells
Format: cell-based
Parameters: After dispersion, the cells were collected by centrifugation, wash with DMEM and placed into culture well; endogenous in cells; host or cells: dispersed primary rat pituitary cells, 4 days in culture
Conditions: for Unstimulated Basal GH release: Table 8
Procedure: In vitro GH Release-Female rats of the CD-1 strain were housed in a constant temperature room at 24° C. with 14 h light and 10 h darkness. The rats were fed Purina Rat chow and water at libitum. All studies were started between 0800-1000 hours. Pituitaries of mature female Sprague Dawley rats were rapidly removed after decapitation, neurointermediate lobe discarded and then placed in a pH 7.4 buffer. The pituitaries were cut into ˜3-mm pieces and then transferred to a flask containing HEPS buffer with trypsin and incubated at 37° C. Cells were triturated several times during this period. After dispersion, the cells were collected by centrifugation, wash with DMEM and placed into culture well. Cell cultures were maintained for 4 days at 37° with 8% CO2 added to the incubator atmosphere. After 4 days in culture, cells were washed with lactated Ringer's solution adjusted to pH 7.2-7.4 and then vehicle, peptide alone or peptide plus stimulator was added to media. Incubation time was 60-120 minutes after which media was removed from each well for GH determination. The GH RIA reagents were distributed by the NIH. Control data was collected from cell cultures treated with only the corresponding vehicle in the absence of peptide or stimulator. Control stimulated data was collected from cell cultures treated with stimulator alone in the absence of any peptide.

[1] = Table 11, compound 10 μg/ml + stimulator 1 ng/ml
[2] = Table 11, compound 30 μg/ml + stimulator 1 ng/ml
[3] = Table 11, compound alone 10 μg/ml
[4] = Table 11, compound alone 30 μg/ml
[5] = Table 10, compound 10 μg/ml + stimulator 1 ng/ml
[6] = Table 10, compound 30 μg/ml + stimulator 1 ng/ml
[7] = Table 10, compound alone 10 μg/ml
[8] = Table 10, compound alone 30 μg/ml
[9] = Table 10, compound 1 μg/ml + stimulator 1 ng/ml
[10] = Table 10, compound 3 μg/ml + stimulator 1 ng/ml
[11] = Table 10, compound alone 1 μg/ml
[12] = Table 10, compound alone 3 μg/ml

Ghrelin/GHRP/GHS Receptor, sequence (O08725 whole entry): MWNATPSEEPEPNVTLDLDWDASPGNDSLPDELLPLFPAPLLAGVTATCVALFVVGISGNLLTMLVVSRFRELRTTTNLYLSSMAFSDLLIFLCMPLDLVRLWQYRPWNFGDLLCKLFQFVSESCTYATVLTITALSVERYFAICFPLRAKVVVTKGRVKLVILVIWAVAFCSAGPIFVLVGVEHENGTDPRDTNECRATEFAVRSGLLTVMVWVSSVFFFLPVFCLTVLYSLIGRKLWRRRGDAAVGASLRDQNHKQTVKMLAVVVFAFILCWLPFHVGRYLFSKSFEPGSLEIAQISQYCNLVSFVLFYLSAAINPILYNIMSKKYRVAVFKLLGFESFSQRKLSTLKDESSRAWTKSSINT

Compound: 1,3-diaminobutyricamide-DβNal-4-phenylpiperidinamide
- Stimulated GH release (P + S) [1]: 644 ± 33 ng/mL
- Stimulated GH release (P + S) [2]: 529 ± 20 ng/mL
- Unstimulated GH release [3]: 794 ± 34 ng/mL
- Unstimulated GH release [4]: 504 ± 20 ng/mL

Compound: 2-[acetylester]-3-(p-m-methoxyl phenyl) piperidinamide]-naphthalene carboxamide
- Stimulated GH release (P + S) [5]: 480 ± 9 ng/mL
- Stimulated GH release (P + S) [6]: 223 ± 22 ng/mL
- Unstimulated GH release [7]: 373 ± 2 ng/mL
- Unstimulated GH release [8]: 176 ± 11 ng/mL

Compound: N[C@H](Cc1c[nH]c2ccccc12)C(=O)N1CCC(c2ccccc2)CC1 [1-DTrp-4-phenylpiperdinamide, DTrp-4-phenylpiperdinamide]
- Stimulated GH release (P + S) [9]: 1085 ± 1 ng/mL
- Stimulated GH release (P + S) [10]: 917 ± 4 ng/mL
- Stimulated GH release (P + S) [5]: 344 ± 6 ng/mL
- Stimulated GH release (P + S) [6]: 486 ± 29 ng/mL
- Unstimulated GH release [11]: 815 ± 26 ng/mL
- Unstimulated GH release [12]: 390 ± 35 ng/mL
- Unstimulated GH release [7]: 520 ± 61 ng/mL
- Unstimulated GH release [8]: 577 ± 24 ng/mL

Compound: COc1ccccc1N1CCN(C(=O)c2cc3ccccc3cc2C(=O)N2CCN(c3ccccc3OC)CC2)CC1 [2,3-di[N-(2-methoxylphenyl)piperazyl-naphthalenecarboxylamide]
- Stimulated GH release (P + S) [9]: 654 ± 18 ng/mL
- Stimulated GH release (P + S) [10]: 442 ± 4 ng/mL
- Stimulated GH release (P + S) [5]: 537 ± 28 ng/mL and 648 ± 16 ng/mL
- Stimulated GH release (P + S) [6]: 309 ± 46 ng/mL
- Unstimulated GH release [11]: 338 ± 3 ng/mL
- Unstimulated GH release [12]: 204 ± 10 ng/mL
- Unstimulated GH release [7]: 262 ± 4 ng/mL and 136 ± 11 ng/mL
- Unstimulated GH release [8]: 118 ± 8 ng/mL

Compound: CCOC(=O)c1cc2ccccc2cc1C(=O)Nc1cccc(OC)c1 [2-[ethylester-3-m-methoxylphenylamide] naphthalene carboxylamide]
- Stimulated GH release (P + S) [1]: 670 ± 32 ng/mL
- Stimulated GH release (P + S) [2]: 458 ± 15 ng/mL
- Unstimulated GH release [3]: 698 ± 18 ng/mL
- Unstimulated GH release [4]: 552 ± 20 ng/mL

Compound: COC(=O)c1cc2ccccc2cc1C(=O)Nc1ccc(C)cc1 [2-[methylester]-3-[p-methylphenylamidenaphthalenecarboxylamide]
- Stimulated GH release (P + S) [1]: 1149 ± 33 ng/mL
- Stimulated GH release (P + S) [2]: 886 ± 29 ng/mL
- Unstimulated GH release [3]: 754 ± 32 ng/mL
- Unstimulated GH release [4]: 498 ± 26 ng/mL

Compound: C=C(C)CON=C(c1ccccc1)c1ccccc1 [5-O-(2-methylallyl) benzophonone oxime, O-(2-methylallyl) benzophonone oxime]
- Stimulated GH release (P + S) [5]: 1281 ± 58 ng/mL
- Stimulated GH release (P + S) [6]: 699 ± 53 ng/mL
- Unstimulated GH release [7]: 929 ± 28 ng/mL
- Unstimulated GH release [8]: 616 ± 23 ng/mL

Compound: N[C@H](COCc1ccccc1)C(=O)N1CCN(c2ccccc2)CC1 [6-D Ser(BZL)-N′-phenyl-N-piperazinamide, D Ser(BZL)-N′-phenyl-N-piperazinamide]
- Stimulated GH release (P + S) [5]: 719 ± 26 ng/mL
- Stimulated GH release (P + S) [6]: 435 ± 0 ng/mL
- Unstimulated GH release [7]: 585 ± 10 ng/mL
- Unstimulated GH release [8]: 368 ± 2 ng/mL

Compound: CC(C)(N)C(=O)N[C@H](COCc1ccccc1)C(=O)N1CCN(c2ccccc2)CC1 [αAibDSer(BZL)-N′-phenyl-N-piperazinamide]
- Stimulated GH release (P + S) [5]: 878 ± 30 ng/mL
- Stimulated GH release (P + S) [6]: 510 ± 15 ng/mL
- Unstimulated GH release [7]: 777 ± 34 ng/mL
- Unstimulated GH release [8]: 499 ± 18 ng/mL

Compound: COc1ccccc1C1CCN(C(=O)[C@@H](Cc2c[nH]c3ccccc23)NC(=O)C(C)(C)N)CC1 [αAibDTrp-p-(α-methoxylphenyl) piperidinamide]
- Stimulated GH release (P + S) [1]: 441 ± 21 ng/mL
- Stimulated GH release (P + S) [2]: 384 ± 16 ng/mL
- Unstimulated GH release [3]: 365 ± 2 ng/mL
- Unstimulated GH release [4]: 375 ± 30 ng/mL

Compound: Ac-DβNal-DTrp-NH2 [2-Ac-DβNal-DTrp-NH2]
- Unstimulated Basal GH release (peptide 3 μg/ml): 1264 ± 2 ng/mL
- Unstimulated Basal GH release (peptide 10 μg/ml): 980 ± 72 ng/mL
- Unstimulated Basal GH release (peptide 30 μg/ml): 699 ± 7 ng/mL

Compound: Ac-DβNal-PlcLys-ILys-DPhe-NH2 [11-Ac-DβNal-PlcLys-ILys-DPhe-NH2]
- Unstimulated Basal GH release (peptide 3 μg/ml): 1013 ± 207 ng/mL
- Unstimulated Basal GH release (peptide 10 μg/ml): 976 ± 13 ng/mL
- Unstimulated Basal GH release (peptide 30 μg/ml): 928 ± 16 ng/mL

Compound: Ac-[dK]Y[dW][dW]F-NH2 [9-Ac-DLys-Tyr-DTrp-DTrp-Phe-NH2]
- Unstimulated Basal GH release (peptide 3 μg/ml): 105 ± 8 ng/mL
- Unstimulated Basal GH release (peptide 10 μg/ml): 950 ± 91 ng/mL
- Unstimulated Basal GH release (peptide 30 μg/ml): 782 ± 56 ng/mL
- Unstimulated Basal GH release (peptide 100 μg/ml): 756 ± 1 ng/mL

Compound: Arg-DTrp-Leu-Tyr-Trp-Pro(cyclic Arg-Pro) (WLYWP; HELM PEPTIDE1{R.[dW].L.Y.W.P}$PEPTIDE1,PEPTIDE1,1:R1-6:R2$$$V2.0; SMILES CC(C)C[C@@H]1NC(=O)[C@@H](Cc2c[nH]c3ccccc23)NC(=O)[C@H](CCCNC(=N)N)NC(=O)[C@@H]2CCCN2C(=O)[C@H](Cc2c[nH]c3ccccc23)NC(=O)[C@H](Cc2ccc(O)cc2)NC1=O)
- Unstimulated Basal GH release (peptide 3 μg/ml): 1480 ± 19 ng/mL
- Unstimulated Basal GH release (peptide 10 μg/ml): 802 ± 26 ng/mL
- Unstimulated Basal GH release (peptide 30 μg/ml): 601 ± 16 ng/mL
- Unstimulated Basal GH release (peptide 100 μg/ml): 509 ± 49 ng/mL

Compound: Benzamide-DSerDLysTrp-p-phenylpiperidinamide
- Stimulated GH release (P + S) [10]: 432 ± 25 ng/mL
- Stimulated GH release (P + S) [5]: 353 ± 10 ng/mL
- Unstimulated GH release [12]: 393 ± 54 ng/mL
- Unstimulated GH release [7]: 369 ± 30 ng/mL

Compound: DAla-DcyclohexylAla-Ala-Ala-Phe-DPhe-Nle-NH2
- Unstimulated Basal GH release (peptide 1 μg/ml): 286 ± 75 ng/mL
- Unstimulated Basal GH release (peptide 3 μg/ml): 177 ± 44 ng/mL
- Unstimulated Basal GH release (peptide 10 μg/ml): 271 ± 38 ng/mL
- Unstimulated Basal GH release (peptide 30 μg/ml): 376 ± 28 ng/mL

Compound: DPal-Phe-DTrp-Phe-Met-NH2 [12-DPal-Phe-DTrp-Phe-Met-NH2]
- Unstimulated Basal GH release (peptide 3 μg/ml): 1081 ± 50 ng/mL
- Unstimulated Basal GH release (peptide 10 μg/ml): 997 ± 30 ng/mL
- Unstimulated Basal GH release (peptide 30 μg/ml): 425 ± 25 ng/mL

Compound: DPal-Trp-DPhe-Phe-Met-NH2 [14-DPal-Trp-DPhe-Phe-Met-NH2]
- Unstimulated Basal GH release (peptide 3 μg/ml): 1105 ± 18 ng/mL
- Unstimulated Basal GH release (peptide 10 μg/ml): 891 ± 4 ng/mL
- Unstimulated Basal GH release (peptide 30 μg/ml): 567 ± 24 ng/mL

Compound: DPhe-Ala-Phe-DPal-NH2 [6-DPhe-Ala-Phe-DPal-NH2]
- Unstimulated Basal GH release (peptide 3 μg/ml): 170 ± 19 ng/mL
- Unstimulated Basal GH release (peptide 10 μg/ml): 181 ± 31 ng/mL
- Unstimulated Basal GH release (peptide 30 μg/ml): 161 ± 20 ng/mL
- Unstimulated Basal GH release (peptide 100 μg/ml): 146 ± 21 ng/mL

Compound: H[dW][dW]K-NH2 [1-His-DTrp-DTrp-Lys-NH2]
- Unstimulated Basal GH release (peptide 3 μg/ml): 1124 ± 37 ng/mL
- Unstimulated Basal GH release (peptide 10 μg/ml): 749 ± 10 ng/mL
- Unstimulated Basal GH release (peptide 30 μg/ml): 615 ± 41 ng/mL

Compound: Ser(Bzl)Lys(Ac)DTrp-p-phenylpiperidinamide
- Stimulated GH release (P + S) [5]: 571 ± 32 ng/mL
- Stimulated GH release (P + S) [6]: 399 ± 24 ng/mL
- Unstimulated GH release [7]: 388 ± 41 ng/mL
- Unstimulated GH release [8]: 273 ± 39 ng/mL

Compound: [dF]AF[dF]K-NH2 [7-DPhe-Ala-Phe-DPhe-Lys-NH2]
- Unstimulated Basal GH release (peptide 10 μg/ml): 267 ± 27 ng/mL
- Unstimulated Basal GH release (peptide 30 μg/ml): 276 ± 65 ng/mL
- Unstimulated Basal GH release (peptide 100 μg/ml): 360 ± 84 ng/mL

Compound: [dF]W[dF]FM-NH2 [13-DPhe-Trp-DPhe-Phe-Met-NH2]
- Unstimulated Basal GH release (peptide 3 μg/ml): 1146 ± 34 ng/mL
- Unstimulated Basal GH release (peptide 10 μg/ml): 1086 ± 32 ng/mL
- Unstimulated Basal GH release (peptide 30 μg/ml): 871 ± 89 ng/mL

Compound: [dK]Y[dW][dW]F-NH2 [8-DLys-Tyr-DTrp-DTrp-Phe-NH2]
- Unstimulated Basal GH release (peptide 1 μg/ml): 1451 ± 19 ng/mL
- Unstimulated Basal GH release (peptide 3 μg/ml): 1175 ± 77 ng/mL
- Unstimulated Basal GH release (peptide 10 μg/ml): 1129 ± 6 ng/mL
- Unstimulated Basal GH release (peptide 30 μg/ml): 744 ± 44 ng/mL

Compound: p-phenyl(piperidinamide-DTrpLysSer(BZL)-acetylamide
- Stimulated GH release (P + S) (Table 11, compound 1 μg/ml + stimulator 1 ng/ml): 680 ± 13 ng/mL
- Stimulated GH release (P + S) (Table 11, compound 3 μg/ml + stimulator 1 ng/ml): 489 ± 41 ng/mL
- Stimulated GH release (P + S) [1]: 245 ± 16 ng/mL

Compound: αAib-DTrp-DAla-cyclohexylAla-NH2 [4-αAib-DTrp-DAla-cyclohexylAla-NH2]
- Unstimulated Basal GH release (peptide 1 μg/ml): 1086 ± 52 ng/mL
- Unstimulated Basal GH release (peptide 3 μg/ml): 1103 ± 18 ng/mL
- Unstimulated Basal GH release (peptide 10 μg/ml): 994 ± 22 ng/mL
- Unstimulated Basal GH release (peptide 30 μg/ml): 704 ± 115 ng/mL

Compound: αAib-DTrp-DcyclohexylAla-NH2 [3-αAib-DTrp-DcyclohexylAla-NH2]
- Unstimulated Basal GH release (peptide 1 μg/ml): 980 ± 44 ng/mL
- Unstimulated Basal GH release (peptide 3 μg/ml): 826 ± 32 ng/mL
- Unstimulated Basal GH release (peptide 10 μg/ml): 602 ± 53 ng/mL
- Unstimulated Basal GH release (peptide 30 μg/ml): 492 ± 11 ng/mL

Compound: γAbuDTrp-p-[m-methoxyphenyl] piperidinamide
- Stimulated GH release (P + S) [1]: 526 ± 27 ng/mL
- Stimulated GH release (P + S) [2]: 428 ± 22 ng/mL
- Unstimulated GH release [3]: 557 ± 19 ng/mL
- Unstimulated GH release [4]: 378 ± 18 ng/mL
